In patent US7790771B1, “Use of tosylchloramide(s) for treating disease of the skin, mucous membrane, organs and tissues” (Engelhard Arzneimittel GmbH & Co., priority 1999, dated 2010):

Test: Treatments of Example 5 repeated with corticoid-free bases containing only chloramine T
Type: in vivo
Conditions: powder added to the bath water
Description: Instead of adhesive salve Volon A with added chloramine T, a normal cooling salve was prepared—“unguentum leniens” which merely contained chloramine T-powder (2% by weight) as active ingredient, but no corticoid. The success described under Example 5 was the same.

Cc1ccc(S(=O)(=O)NCl)cc1.[Na] [chloramine T, tosylchloramide-sodium]
treatment results compared with Example 5: comparable results
